Columns and labels:
Labrador Retrievers [1] = test: Heart rate and body temperature recovery following 15 mile run, Example 2 part one; type: in vivo, dog; conditions: for Temperature After Run: in °F (unit assumed)
Protocol: Each performance dog wore the Actical activity monitor and GPS tracking collar during the last 15 mile endurance run. The final run was conducted in a manner analogous to that of Example 1. All activity was accurately and precisely calculated using the GPS tracking monitors. Immediately following the 15 mile endurance run, each dog was placed in a kennel and evaluated for recovery time in body temperature (every 15 minutes for 2 hours) and heart rate (every 2 minutes for up to 20 minutes until basal beats per minute (BPM) was reached). Body temperature and heart rate were measured as described in Example 1.

Labrador Retrievers [2] = test: Oxygen consumption on treadmill (Oxymax open-circuit calorimeter), Example 2 part three; type: in vivo, dog
Protocol: Sixteen Labrador Retrievers ranging in age from 1.5 to 3 years were fed low carnitine basal diets with and without added L-carnitine for a 37 week period that included part one and two of the study. Eight (4 male and 4 female) of the test L-carnitine dogs were each fed 3.75 g sugar and 250 mg of L-carnitine, while the other eight dogs (4 male and 4 female) were fed only 4 g of sugar each day for the experimental period. The sixteen test dogs were fed the same diet for parts one, two, and three of the study. During part three of the study, the 16 test dogs were exclusively exercised on the industry sized canine treadmill. Initial Oxymax data was developed for each of the test dogs at various times and speeds in order to determine appropriate speeds on the treadmill required to achieve maximum VO2 concentration. The dogs were run for 15 minutes at 6.5 mph to determine VO2 max. The 16 test dogs were then ran at 50% VO2 max (equivalent to 4 mph) on the treadmill for 30 minutes to determine total energy expenditure (heat production). The system used to acquire information on volume of oxygen consumption and energy expenditure was an Open-Circuit calorimeter, which employed air from the surrounding environment. A mask specially designed for dogs was used to recover the gas sample and ventilate the dog. A small sample was drawn for gas analysis and dried to assure that the readings were made in a sample that was not under the influence of water vapor air exiting the chamber. The O2 and CO2 sensors were connected to software, and instant values of O2 and CO2 were measured. The 16 test dogs (8 L-carnitine dogs, 4 male and 4 female, and 8 control dogs, 4 male and 4 female) were exercised at a warm up speed of 2 mph for 5 minutes prior to running at VO2 max for 15 minutes at 6.5 mph. The next week, the test dogs ran again at a warm up speed of 2 mph for 5 minutes and then at 50% VO2 max for 30 minutes at 4 mph. The statistical analysis for gas exchange was analyzed by a factorial design 2×2 (2 genders and 2 diet treatments) and 2×2×2 (2 genders, 2 diets, 2 speeds) at p-value<0.05. The variable maximum oxygen consumption (Max VO2) was the highest amount of oxygen consumption during the exercise time. The mean oxygen consumption (Mean VO2) was the average amount of oxygen consumption during the exercise time. Oxygen consumption was reported on a per L/kg BW/h basis.

[3] = Ex.2 part three, 250 mg/d, females, 6.5 mph for 15 min (VO2 max)
[4] = Ex.2 part three, 250 mg/d, females, 50% VO2 max (4 mph, 30 min)
[5] = Ex.2 part three, 250 mg/d, females, average of combined speeds (4 mph and 6.5 mph)
[6] = combined speeds 4.0 and 6.5 (50% VO2 Max and VO2 Max), diet main effect, both genders
[7] = combined speeds 4.0 and 6.5 (50% VO2 Max and VO2 Max), female dogs
[8] = combined speeds 4.0 and 6.5 (50% VO2 Max and VO2 Max), male dogs
[9] = treadmill speed 4 for 30 min (50% VO2 Max), diet main effect, both genders
[10] = treadmill speed 4 for 30 min (50% VO2 Max), female dogs
[11] = treadmill speed 4 for 30 min (50% VO2 Max), male dogs
[12] = treadmill speed 6.5 for 15 min (VO2 Max), diet main effect, both genders
[13] = treadmill speed 6.5 for 15 min (VO2 Max), female dogs
[14] = treadmill speed 6.5 for 15 min (VO2 Max), male dogs

## C[N+](C)(C)C[C@H](O)CC(=O)[O-] [L-carnitine]
Labrador Retrievers [1]; Ex.2 part one, 250 mg/d, 4 minutes post final run, both sexes
  Heartrate after run: 156.15 BPM
Labrador Retrievers [1]; Ex.2 part one, 250 mg/d, 4 minutes post final run, males
  Heartrate after run: 160 BPM
Labrador Retrievers [1]; Ex.2 part one, 250 mg/d, immediately following 15 mile run, both sexes
  Heartrate after run: 184.23 BPM
Labrador Retrievers [1]; Ex.2 part one, 250 mg/d, males and females, FIGS. 5A, 5B
  Return to basal temperature vs control (regression model): reached basal temperatures faster
Labrador Retrievers [1]; Ex.2 part one, 250 mg/d, overall group, males and females, FIGS. 4A, 4B
  Return to basal heart rate vs control (regression model): reached basal heart rate faster
Labrador Retrievers [1]; Females, Temp - 0 min after 15 mile run
  Temperature After Run: 105.16 ± 0.35
Labrador Retrievers [1]; Females, Temp - 15 min after 15 mile run
  Temperature After Run: 102.69 ± 0.24
Labrador Retrievers [1]; Females, Temp - 30 min after 15 mile run
  Temperature After Run: 101.31 ± 0.2
Labrador Retrievers [1]; Females, Temp - 45 min after 15 mile run
  Temperature After Run: 101.16 ± 0.2
Labrador Retrievers [1]; Females, Temp - 60 min after 15 mile run
  Temperature After Run: 101.14 ± 0.2
Labrador Retrievers [1]; Females, Time - 0 min after 15 mile run
  Heartrate After Run: 180.83 ± 3.36 BPM
Labrador Retrievers [1]; Females, Time - 2 min after 15 mile run
  Heartrate After Run: 165 ± 6.09 BPM
Labrador Retrievers [1]; Females, Time - 4 min after 15 mile run
  Heartrate After Run: 152.31 ± 6.71 BPM
Labrador Retrievers [1]; Females, Time - 6 min after 15 mile run
  Heartrate After Run: 149.17 ± 6.21 BPM
Labrador Retrievers [1]; Females, Time - 8 min after 15 mile run
  Heartrate After Run: 135 ± 6.34 BPM
Labrador Retrievers [1]; Females, Time - 10 min after 15 mile run
  Heartrate After Run: 117.9 ± 7.45 BPM
Labrador Retrievers [1]; Females, Time - 12 min after 15 mile run
  Heartrate After Run: 113.08 ± 8.5 BPM
Labrador Retrievers [1]; Females, Time - 14 min after 15 mile run
  Heartrate After Run: 107.27 ± 8.95 BPM
Labrador Retrievers [1]; Females, Time - 16 min after 15 mile run
  Heartrate After Run: 78.57 ± 5.73 BPM
Labrador Retrievers [1]; Females, Time - 18 min after 15 mile run
  Heartrate After Run: 77.86 ± 5.47 BPM
Labrador Retrievers [1]; Females, Time - 20 min after 15 mile run
  Heartrate After Run: 77.14 ± 5.29 BPM
Labrador Retrievers [1]; Males, Temp - 0 min after 15 mile run
  Temperature After Run: 105.79 ± 0.36
Labrador Retrievers [1]; Males, Temp - 15 min after 15 mile run
  Temperature After Run: 102.39 ± 0.4
Labrador Retrievers [1]; Males, Temp - 30 min after 15 mile run
  Temperature After Run: 100.94 ± 0.23
Labrador Retrievers [1]; Males, Temp - 45 min after 15 mile run
  Temperature After Run: 100.87 ± 0.19
Labrador Retrievers [1]; Males, Temp - 60 min after 15 mile run
  Temperature After Run: 100.87 ± 0.19
Labrador Retrievers [1]; Males, Time - 0 min after 15 mile run
  Heartrate After Run: 187.14 ± 3.54 BPM
Labrador Retrievers [1]; Males, Time - 2 min after 15 mile run
  Heartrate After Run: 172.14 ± 3.81 BPM
Labrador Retrievers [1]; Males, Time - 4 min after 15 mile run
  Heartrate After Run: 160 ± 4.94 BPM
Labrador Retrievers [1]; Males, Time - 6 min after 15 mile run
  Heartrate After Run: 142.86 ± 5.59 BPM
Labrador Retrievers [1]; Males, Time - 8 min after 15 mile run
  Heartrate After Run: 129.29 ± 5.29 BPM
Labrador Retrievers [1]; Males, Time - 10 min after 15 mile run
  Heartrate After Run: 122.86 ± 3.7 BPM
Labrador Retrievers [1]; Males, Time - 12 min after 15 mile run
  Heartrate After Run: 108.57 ± 3.76 BPM
Labrador Retrievers [1]; Males, Time - 14 min after 15 mile run
  Heartrate After Run: 95 ± 3.1 BPM
Labrador Retrievers [1]; Males, Time - 16 min after 15 mile run
  Heartrate After Run: 92.14 ± 3 BPM
Labrador Retrievers [1]; Males, Time - 18 min after 15 mile run
  Heartrate After Run: 89.29 ± 2.21 BPM
Labrador Retrievers [1]; Males, Time - 20 min after 15 mile run
  Heartrate After Run: 89.29 ± 2.21 BPM
Labrador Retrievers [1]; Whole Groups, Temp - 0 min after 15 mile run
  Temperature After Run: 105.48 ± 0.25
Labrador Retrievers [1]; Whole Groups, Temp - 15 min after 15 mile run
  Temperature After Run: 102.54 ± 0.23
Labrador Retrievers [1]; Whole Groups, Temp - 30 min after 15 mile run
  Temperature After Run: 101.12 ± 0.15
Labrador Retrievers [1]; Whole Groups, Temp - 45 min after 15 mile run
  Temperature After Run: 101.01 ± 0.14
Labrador Retrievers [1]; Whole Groups, Temp - 60 min after 15 mile run
  Temperature After Run: 101.01 ± 0.14
Labrador Retrievers [1]; Whole Groups, Time - 0 min after 15 mile run
  Heartrate After Run: 184.23 ± 2.49 BPM
Labrador Retrievers [1]; Whole Groups, Time - 2 min after 15 mile run
  Heartrate After Run: 168.85 ± 3.48 BPM
Labrador Retrievers [1]; Whole Groups, Time - 4 min after 15 mile run
  Heartrate After Run: 156.15 ± 4.15 BPM
Labrador Retrievers [1]; Whole Groups, Time - 6 min after 15 mile run
  Heartrate After Run: 145.77 ± 4.12 BPM
Labrador Retrievers [1]; Whole Groups, Time - 8 min after 15 mile run
  Heartrate After Run: 131.92 ± 4.04 BPM
Labrador Retrievers [1]; Whole Groups, Time - 10 min after 15 mile run
  Heartrate After Run: 120.79 ± 3.72 BPM
Labrador Retrievers [1]; Whole Groups, Time - 12 min after 15 mile run
  Heartrate After Run: 110.74 ± 4.46 BPM
Labrador Retrievers [1]; Whole Groups, Time - 14 min after 15 mile run
  Heartrate After Run: 100.4 ± 4.38 BPM
Labrador Retrievers [1]; Whole Groups, Time - 16 min after 15 mile run
  Heartrate After Run: 85.36 ± 3.43 BPM
Labrador Retrievers [1]; Whole Groups, Time - 18 min after 15 mile run
  Heartrate After Run: 83.57 ± 3.1 BPM
Labrador Retrievers [1]; Whole Groups, Time - 20 min after 15 mile run
  Heartrate After Run: 83.21 ± 3.05 BPM
Labrador Retrievers [2]; [3]
  Max VO2 consumption: 60.8 mL/min/kg
  Mean VO2: 3.11 L/kg/h
Labrador Retrievers [2]; [4]
  Max VO2 consumption: 42 mL/min/kg
  Mean VO2: 1.99 L/kg/h
Labrador Retrievers [2]; [5]
  Maximum VO2 consumption: 50.3 mL/min/kg
  Mean VO2 consumption: 41.7 mL/min/kg
Labrador Retrievers [2]; [6]
  Max VO2: 2.80 L/kg/h
  Mean VO2: 2.40 L/kg/h
Labrador Retrievers [2]; [7]
  Max VO2: 3.02 a L/Kg/h
  Mean VO2: 2.50 a L/Kg/h
Labrador Retrievers [2]; [8]
  Max VO2: 2.57 ab L/Kg/h
  Mean VO2: 2.31 ab L/Kg/h
Labrador Retrievers [2]; [9]
  Max VO2: 2.39 L/kg/h
  Mean VO2: 1.98 L/kg/h
Labrador Retrievers [2]; [10]
  Max VO2: 2.52 L/kg/h
  Mean VO2: 1.99 L/kg/h
Labrador Retrievers [2]; [11]
  Max VO2: 2.26 L/kg/h
  Mean VO2: 1.97 L/kg/h
Labrador Retrievers [2]; [12]
  Max VO2: 3.27 L/kg/h
  Mean VO2: 2.89 L/kg/h
Labrador Retrievers [2]; [13]
  Max VO2: 3.65 L/kg/h
  Mean VO2: 3.11 L/kg/h
Labrador Retrievers [2]; [14]
  Max VO2: 2.89 L/kg/h
  Mean VO2: 2.66 L/kg/h

Source: US10016382B2, “Method for decreasing skeletal muscle damage and/or oxidative stress in mammals” (LONZA INC., priority 2014, dated 2018)
